Several values for one entry are separate records, joined by “and”; a condition that tells them apart may be missing. Identical values can stand only once. Marks after values point to notes of the source that are not given here. Blank lines part the entries; values can stand above or below the compound they belong to.
Legend:
[1] = system: GlcCer synthase of MDCK cell homogenates; assay: Inhibition of ceramide glucosyltransferase (GlcCer synthase) of MDCK cell homogenates; assay type: biochemical, canine; conditions: for Inhibition at 5 μM: 5 μM inhibitor; for Inhibition at 5 μM / % Inhibition at 80 μM: triplicate ± SD, samples partly isomer mixtures; for % Inhibition at 80 μM: 80 μM inhibitor; for inhibition of GlcCer synthase by nonionic ceramide-like compounds: 20 μM
Protocol: Assay of sphingolipid enzymes. The inhibitors were evaluated for their effectiveness against the GlcCer synthase of MDCK cell homogenates by incubation in a thermostatted ultrasonic bath (Radin N. S. et al., “Ultrasonic Baths as Substitutes for Shaking Incubator Baths,” Enzyme, 45:67-70 (1991)) with octanoyl sphingosine and uridinediphospho[^3H]glucose (Shukla, G. S. et al., “Glucosylceramide Synthase of Mouse Kidney: Further Characterization and Improved Assay Method,” Arch. Biochem. Biophys., 283:372-378 (1990)). The lipoidal substrate (85 μg) was added in liposomes made from 0.57 mg dioleoylphosphatidylcholine and 0.1 mg of Na sulfatide. Confluent cells were washed, then homogenized with a micro-tip sonicator at 0° C. for 3×30 sec; ˜0.2 mg of protein was used in each assay tube. In the case of the aromatic inhibitors, the test compound was simply evaporated to dryness from solution in the incubation tube. […] The aliphatic inhibitors, which appeared to be less soluble in water, were added as part of the substrate liposomes.

[2] = system: 9L brain gliosarcoma cells; assay: Tumor cell growth in vitro (sulforhodamine B), 9L; assay type: cell-based; conditions: for effectiveness on growth and survival of 9L cells, in words: FIG. 1
Protocol: Growth of cell lines. Comparisons of different inhibitors with regard to suppression of human cancer cell growth were made by the University of Michigan Cancer Center in vitro Drug Evaluation Core Laboratory. MCF-7 breast carcinoma cells, HT-29 colon adenocarcinoma cells, H-460 lung large cell carcinoma cells, and 9L brain gliosarcoma cells were grown in RPMI 1640 medium with 5% fetal bovine serum, 2 mM glutamine, 50 units/ml of penicillin, […] of streptomycin, and 0.1 mg/ml of neomycin. UMSCC-10A head and neck squamous carcinoma cells were grown in minimal essential medium with Earle salts and the same supplements. Medium components were from Sigma Chemical Co. Cells were plated in 96-well microtiter plates (1000 cells/well for H-460 and 9L cells, and 2000 cells/well for the other lines), and the test compounds were added 1 day later. The stock inhibitor solutions, 2 mM in 2 mM BSA, were diluted with different amounts of additional 2 mM BSA, then each solution was diluted 500-fold with growth medium to obtain the final concentrations indicated in the Figures and Tables.
Five days after plating the H-460 and 9L cells, or 6 days for the other lines, cell growth was evaluated by staining the adhering cells with sulforhodamine B and measuring the absorbance at 520 nm (Skehan, P. et al., “New Colorimetric Cytotoxicity Assay for Anticancer-Drug Screening,” J. Natl. Cancer Inst., 82:1107-1112 (1990)). The absorbance of the treated cultures is reported as percent of that of control cultures, to provide an estimate of the fraction of the cells that survived, or of inhibition of growth rate.

MDCK cells [3] = assay: MDCK cell growth (cellular protein per dish); assay type: cell-based, canine
Protocol: For the experiments with labeled thymidine, each 8.5 cm dish contained 500,000 Madin-Darby canine kidney (MDCK) cells in 8 ml of Dulbecco modified essential supplemented medium. […] The control cells were also incubated in the presence of BSA. The cells were washed with phosphate/saline and trichloroacetic acid, then scraped off the dishes, dissolved in alkali, and analyzed for protein and DNA incorporated tritium. [Methyl-^3H]thymidine (10 μCi) was added 4 h prior to harvesting.

acid ceramidase = assay: Acid ceramidase of MDCK cell homogenate; assay type: biochemical, canine
Protocol: (§1) Acid and neutral ceramidases were assayed under conditions like those above, but the medium contained 110 μM [1-^14C]decanoyl sphingosine (10^5 cpm) in 340 μM dioleoylphosphatidylcholine liposomes and 0.34 mg of MDCK cellular protein homogenate. […] After 60 min in the ultrasonic bath, 3 ml of C-M 2:1, carrier decanoic acid, and 0.6 ml of 0.9% saline were added and the lipids in the lower layer were separated by TLC with C-HOAc 9:1. The liberated decanoic acid was scraped off the glass plate and counted.

neutral ceramidase = assay: Neutral ceramidase of MDCK cell homogenate; assay type: biochemical, canine
Protocol: as §1

Ceramide synthase = Ceramide synthase of MDCK homogenate; assay type: biochemical, canine
Protocol: Ceramide synthase was assayed with 1 μM [3-^3H]sphingosine (70,000 cpm, repurified by column chromatography), 0.2 mM stearoyl-CoA, 0.5 mM dithiothreitol, and ˜300 μg of MDCK homogenate protein in 25 mM phosphate-K^+ buffer, pH 7.4, in a total volume of 0.2 ml. The incubation (for 30 min) and TLC were carried out as above and the ceramide band was counted.

Acid SMase = assay: Acid sphingomyelinase of MDCK cells; assay type: biochemical, canine
Protocol: Acid and neutral SMase assays were based on the procedures of Gatt et al. (Gatt, S. et al., “Assay of Enzymes of Lipid Metabolism With Colored and Fluorescent Derivatives of Natural Lipids,” Meth. Enzymol., 72:351-375 (1981)), using liposomes containing NBD-SM dispersed like the labeled ceramide (10 μM substrate and 30 μM lecithin). The assay medium for the neutral enzyme also contained 50 mM Tris-Cl^− (pH 7.4), 25 mM KCl, 5 mM MgCl2 and 0.29 mg of MDCK cell protein in a total volume of 0.25 ml. Incubation was at 37° C. for 30 min in the ultrasonic bath, then the fluorescent product, NBD-ceramide, was isolated by partitioning the assay mixture with 0.45 ml 2-propanol, 1.5 ml heptane, and 0.2 ml water. After centrifugation, a trace of contaminating NBD-SM was removed from 0.9 ml of the upper layer by washing with 0.35 ml water. The upper layer was analyzed with a fluorometer (460 nm excitation, 515 nm emission).
[…] The resultant ceramide was determined as above.

[4] = system: Neutral sphingomyelinase (SMase); assay: Neutral sphingomyelinase of MDCK cells; assay type: biochemical, canine
Protocol: Acid and neutral SMase assays were based on the procedures of Gatt et al. (Gatt, S. et al., “Assay of Enzymes of Lipid Metabolism With Colored and Fluorescent Derivatives of Natural Lipids,” Meth. Enzymol., 72:351-375 (1981)), using liposomes containing NBD-SM dispersed like the labeled ceramide (10 μM substrate and 30 μM lecithin). […] Incubation was at 37° C. for 30 min in the ultrasonic bath, then the fluorescent product, NBD-ceramide, was isolated by partitioning the assay mixture with 0.45 ml 2-propanol, 1.5 ml heptane, and 0.2 ml water. After centrifugation, a trace of contaminating NBD-SM was removed from 0.9 ml of the upper layer by washing with 0.35 ml water. The upper layer was analyzed with a fluorometer (460 nm excitation, 515 nm emission).

MDCK cells [5] = assay: Lipid changes in MDCK cells (GlcCer, ceramide, diacylglycerol); assay type: cell-based, canine

Structure (SMILES): CCCCCCCCCCCCCCCC(=O)NC(CN1CCOCC1)C(O)c1ccc(OC)cc1 (mixture of isomers) [BML-125]
- Inhibition at 5 μM [1]: 9 ± 3.0^e %

- IC50 ([2]; 9L, rounded off to one digit, read-out: Inhibition of tumor cell growth in vitro, IC50): 2 µM
Structure (SMILES): CCCCCCCCCCCCCCCC(=O)NC(CN1CCCC1)C(O)c1ccc(OC)cc1 (mixture of isomers) [BML-126]
- Inhibition at 5 μM [1]: 54 ± 0.3^f %
- % Inhibition at 80 μM [1]: 60 ± 1.8^e %

Structure (SMILES): CCCCCCCCCCCCCC(=O)N[C@@H](C)[C@H](O)c1ccccc1 [D-erythro-N-myristoyl-2-amino-1-phenyl-1-propanol, reference compound]
- inhibition of GlcCer synthase by nonionic ceramide-like compounds [1]: did not inhibit

Structure (SMILES): CCCCCCCCCCCCC/C=C/[C@H](O)[C@@H](CN1CCOCC1)NC(=O)CCCCCCCCCCCCCCC [IV-181A]
- Inhibition at 5 μM [1]: 12 ± 0.2^g %

Structure (SMILES): CCCCCCCCCCCCC/C=C/[C@@H](O)[C@@H](CN1CCOCC1)NC(=O)CCCCCCCCCCCCCCC [IV-206A]
- Inhibition at 5 μM [1]: 73 ± 1.5^g %

Structure (SMILES): CCCCCCCCCCCCC/C=C/[C@H](O)[C@@H](CN1CCCC1)NC(=O)CCCCCCCCCCCCCCC [IV-230A]
- Inhibition at 5 μM [1]: 19 ± 2.1^g %

- Ceramide Synthase, enzyme activity (% of control) (Ceramide synthase; 5 μM): 90 ± 8 % of control
- Ceramide Synthase, enzyme activity (% of control) (Ceramide synthase; 50 μM): 71 ± 18^a % of control
Structure (SMILES): CCCCCCCCCCCCCC=CC(O)C(CN1CCCC1)NC(=O)CCCCCCCCCCCCCCC [IV-231B, D-threo-1-pyrrolidino-1-deoxyceramide]
- degree of inhibition of GlcCer synthase ([1]; 3 μM, inhibitor incorporated into the substrate liposomes): 77±0.9%
- Inhibition at 5 μM [1]: 87 ± 0.4^g %
- effect on MDCK cell growth (MDCK cells [3]; 20 μM for 1 day or 1 μM for 3 days): no inhibitory effect
- effect on MDCK cell growth (MDCK cells [3]; 5 days in 5 μM inhibitor): no slowing of growth
- protein per dish (MDCK cells [3]; 5 days in 5 μM inhibitor, BSA complex): 3.30 ± 0.04 mg
- Ceramidase pH 4.5, enzyme activity (% of control) (acid ceramidase; 5 μM): 106 ± 3 % of control
- Ceramidase pH 4.5, enzyme activity (% of control) (acid ceramidase; 50 μM): 113 ± 8 % of control
- Ceramidase pH 7.4, enzyme activity (% of control) (neutral ceramidase; 5 μM): 116 ± 20 % of control
- Ceramidase pH 7.4, enzyme activity (% of control) (neutral ceramidase; 50 μM): 112 ± 3 % of control
- Sphingomyelinase pH 4.5, enzyme activity (% of control) (Acid SMase; 5 μM): 101 ± 7 % of control
- Sphingomyelinase pH 4.5, enzyme activity (% of control) (Acid SMase; 50 μM): 112 ± 11 % of control
- Sphingomyelinase pH 7.1, enzyme activity (% of control) ([4]; 5 μM): 131 ± 3^b % of control
- Sphingomyelinase pH 7.1, enzyme activity (% of control) ([4]; 50 μM): 120 ± 3^b % of control
- GlcCer in cells (TLC) (MDCK cells [5]; 1 μM for 3 days): virtually no GlcCer was visible
- GlcCer in cells (TLC) (MDCK cells [5]; 0.02 to 1 μM for 3 days): great depletion of GlcCer
- ceramide accumulation (TLC) (MDCK cells [5]; 0.02 to 1 μM for 3 days): no ceramide accumulation
- all the GSLs in cells (TLC) (MDCK cells [5]; 5 days in 5 μM inhibitor): virtually undetectable
- ceramide concentration (MDCK cells [5]; depleted cells, 5 days in 5 μM inhibitor): 13.9±0.2 μg/mg protein

Structure (SMILES): CCCCCCCCCCCCC/C=C/[C@@H](O)[C@H](CO)NC(C)=O [N-acetylsphingosine, reference compound]
- inhibition of GlcCer synthase by nonionic ceramide-like compounds [1]: did not inhibit

- Ceramide Synthase, enzyme activity (% of control) (Ceramide synthase; 5 μM): 99 ± 5 % of control
- Ceramide Synthase, enzyme activity (% of control) (Ceramide synthase; 50 μM): 66 ± 9^a % of control
Structure (SMILES): CCCCCCCCCC(=O)N[C@H](CN1CCOCC1)[C@H](O)c1ccccc1 [PDMP, 1R-phenyl-2R-decanoylamino-3-morpholino-1-propanol, reference compound]
- Inhibition at 5 μM [1]: 16 ± 1.8^f %
- % Inhibition at 80 μM [1]: 90 ± 0.8^a %
- effectiveness on growth and survival of 9L cells, in words [2]: even weaker effectiveness
- Ceramidase pH 4.5, enzyme activity (% of control) (acid ceramidase; 5 μM): 97 ± 4 % of control
- Ceramidase pH 4.5, enzyme activity (% of control) (acid ceramidase; 50 μM): 133 ± 13^a % of control
- Ceramidase pH 7.4, enzyme activity (% of control) (neutral ceramidase; 5 μM): 116 ± 19 % of control
- Ceramidase pH 7.4, enzyme activity (% of control) (neutral ceramidase; 50 μM): 105 ± 11 % of control
- Sphingomyelinase pH 4.5, enzyme activity (% of control) (Acid SMase; 5 μM): 102 ± 3 % of control
- Sphingomyelinase pH 4.5, enzyme activity (% of control) (Acid SMase; 50 μM): 100 ± 3 % of control
- Sphingomyelinase pH 7.1, enzyme activity (% of control) ([4]; 5 μM): 121 ± 13 % of control
- Sphingomyelinase pH 7.1, enzyme activity (% of control) ([4]; 50 μM): 108 ± 8 % of control

Structure (SMILES): CCCCCCCCCCCCCCCC(=O)NC(CN1CCOCC1)C(O)c1ccccc1 (centres unmarked) [PPMP, reference compound]
- Inhibition at 5 μM ([1]; 5 µM): 32 ± 1.8^e % and 32 ± 0.7^f %
- effectiveness on growth and survival of 9L cells, in words [2]: relatively weak effectiveness
